Measurements reported in EP4748864A1, “POLYMERIZATION INITIATOR OR PHOTOSENSITIZER, POLYMERIZATION INITIATION COMPOSITION, AND METHOD FOR PRODUCING RESIN” (Miyoshi Oil & Fat Co., Ltd., priority 2023, dated 2025).

Experiments:
Format in all cases: physicochemical
[1] = UV absorption characteristics of component (A), UV-visible spectrophotometer; settings: 100 µM chloroform solution, 10-mm quartz cell; for Maximum absorption wavelength Molar absorption coefficient: at the maximum absorption wavelength
Description: A 100 µM chloroform solution of each benzophenone derivative was prepared and placed in a 10-mm quartz cell. The absorption spectrum was measured using a UV-visible spectrophotometer (V-550, manufactured by JASCO Corporation).

[2] = Solubility of component (A) in monomers and solvents, visual observation; design: key to Solubility Butyl acrylate / Solubility Toluene: ⊚: dissolved transparently; ∘: dissolved almost transparently, but turbidity was observed; △: not dissolved; settings: for Solubility Butyl acrylate: 0.1 g in butyl acrylate (1.0 g); for Solubility Butyl acrylate / Solubility Toluene: visual; for Solubility Toluene: 0.1 g in toluene (1.0 g); for solubility in butyl acrylate and toluene, result in words: 0.1 g in butyl acrylate (1.0 g) or toluene (1.0 g)
Description: The components (A), A-1 to A-4 and A-9 to A-12, (0.1 g) was added to butyl acrylate (1.0 g) or toluene (1.0 g), and the resulting mixture was stirred. The appearance of the mixture was visually observed, and the solubility was evaluated as follows (Table 5).
• ⊚: dissolved transparently • ∘: dissolved almost transparently, but turbidity was observed • △: not dissolved

[3] = Heat resistance of component (A): 5% weight loss temperature by TG/DTA; settings: heating rate 10°C/min, 25°C to 550°C
Description: The 5% weight loss temperature of each benzophenone derivative was measured as follows. Using a simultaneous differential thermal and thermogravimetric analyzer (TG/DTA6200, manufactured by SII), heating was performed at a heating rate of 10°C/min in a measurement range of 25°C to 550°C, and the temperature at which the weight change (TG) decreased by 5% by weight was read.

For 4,4'-Ditolylthiobenzophenone [A-2], the “Maximum absorption wavelength Wavelength” value [1] was 327 nm, the “Maximum absorption wavelength Molar absorption coefficient” value [1] was 31500 L/mol/cm and the “Solubility Butyl acrylate” value [2] was “Δ”. The “Solubility Toluene” value [2] was “○”.

With `S=C(c1ccc(-c2ccccc2)cc1)c1ccc(-c2ccccc2)cc1` [A-1, 4,4'-Diphenylthiobenzophenone] the “Maximum absorption wavelength Wavelength” value [1] was 326 nm, the “Molar absorption coefficient at 365 nm” value [1] was 3900 L/mol/cm and the “Maximum absorption wavelength Molar absorption coefficient” value [1] was 32880 L/mol/cm. The “5% weight loss temperature” value [3] was 314 °C, the “Solubility Butyl acrylate” value [2] was “Δ” and the “Solubility Toluene” value [2] was “Δ”.

For `CC(C)c1ccc(Sc2ccc(C(=O)c3ccc(Sc4ccc(C(C)C)cc4)cc3)cc2)cc1` [A-3, 4,4'-Bis(p-isopropylphenylthio)benzophenone], the “Maximum absorption wavelength Wavelength” value [1] was 327 nm, the “Maximum absorption wavelength Molar absorption coefficient” value [1] was 31440 L/mol/cm and the “solubility in butyl acrylate and toluene, result in words” value [2] was “good solubility”. For the same molecule, the “Solubility Butyl acrylate” value [2] was “⊚” and the “Solubility Toluene” value [2] was “⊚”.

For `CC(C)(C)c1ccc(Sc2ccc(C(=O)c3ccc(Sc4ccc(C(C)(C)C)cc4)cc3)cc2)cc1` [A-4, 4,4'-Bis(p-tert-butylphenylthio)benzophenone], the “Maximum absorption wavelength Wavelength” value [1] was 328 nm, the “Maximum absorption wavelength Molar absorption coefficient” value [1] was 31120 L/mol/cm and the “solubility in butyl acrylate and toluene, result in words” value [2] was “good solubility”. For the same molecule, the “Solubility Butyl acrylate” value [2] was “○” and the “Solubility Toluene” value [2] was “⊚”.

With `Cc1ccc(Sc2ccc(C(=O)c3ccccc3)cc2)cc1` [A-5, 4-(p-Tolylthio)benzophenone, reference compound] the “Maximum absorption wavelength Wavelength” value [1] was 316 nm, the “Molar absorption coefficient at 365 nm” value [1] was 700 L/mol/cm and the “Maximum absorption wavelength Molar absorption coefficient” value [1] was 13200 L/mol/cm. For the same molecule, the “5% weight loss temperature” value [3] was 235 °C.

For `CSc1ccc(C(=O)c2ccc(SC)cc2)cc1` [A-6, 4,4'-Bis(methylthio)benzophenone, reference compound], the “Maximum absorption wavelength Wavelength” value [1] was 323 nm, the “Molar absorption coefficient at 365 nm” value [1] was 1100 L/mol/cm and the “Maximum absorption wavelength Molar absorption coefficient” value [1] was 25100 L/mol/cm. For the same molecule, the “5% weight loss temperature” value [3] was 239 °C.

With `CCCCCCCCSc1ccc(C(=O)c2ccc(SCCCCCCCC)cc2)cc1` [A-7, 4,4'-Bis(octylthio)benzophenone, reference compound] the “Maximum absorption wavelength Wavelength” value [1] was 326 nm, the “Molar absorption coefficient at 365 nm” value [1] was 2000 L/mol/cm and the “Maximum absorption wavelength Molar absorption coefficient” value [1] was 24800 L/mol/cm. The “5% weight loss temperature” value [3] was 282 °C.

In the case of `Cc1cc(C(C)(C)C)ccc1Sc1ccc(C(=O)c2ccc(Sc3ccc(C(C)(C)C)cc3C)cc2)cc1` [A-9, 4,4'-Dithio(4-tert-butyl-2-methylphenyl)benzophenone], the “Maximum absorption wavelength Wavelength” value [1] is reported as 329 nm, the “Molar absorption coefficient at 365 nm” value [1] is reported as 3870 L/mol/cm and the “Maximum absorption wavelength Molar absorption coefficient” value [1] is reported as 32600 L/mol/cm. For the same molecule, the “Solubility Butyl acrylate” value [2] was “⊚” and the “Solubility Toluene” value [2] was “⊚”.

In the case of `Cc1cccc(Sc2ccc(C(=O)c3ccc(Sc4cccc(C)c4)cc3)cc2)c1` [A-10, 4,4'-Dithio(3-methylphenyl)benzophenone], the “Maximum absorption wavelength Wavelength” value [1] is reported as 328 nm, the “Maximum absorption wavelength Molar absorption coefficient” value [1] is reported as 30730 L/mol/cm and the “Solubility Butyl acrylate” value [2] is reported as “○”. For the same molecule, the “Solubility Toluene” value [2] was “⊚”.

For `Cc1ccc(Sc2ccc(C(=O)c3ccc(Sc4ccc(C)cc4C)cc3)cc2)c(C)c1` [A-11, 4,4'-Dithio(2,4-dimethylphenyl)benzophenone], the “Maximum absorption wavelength Wavelength” value [1] was 329 nm, the “Molar absorption coefficient at 365 nm” value [1] was 3830 L/mol/cm and the “Maximum absorption wavelength Molar absorption coefficient” value [1] was 31640 L/mol/cm. The “Solubility Butyl acrylate” value [2] was “○” and the “Solubility Toluene” value [2] was “○”.

With `Cc1ccc(C)c(Sc2ccc(C(=O)c3ccc(Sc4cc(C)ccc4C)cc3)cc2)c1` [A-12, 4,4'-Dithio(2,5-dimethylphenyl)benzophenone] the “Maximum absorption wavelength Wavelength” value [1] was 328 nm, the “Molar absorption coefficient at 365 nm” value [1] was 3250 L/mol/cm and the “Maximum absorption wavelength Molar absorption coefficient” value [1] was 31590 L/mol/cm. For the same molecule, the “Solubility Butyl acrylate” value [2] was “○” and the “Solubility Toluene” value [2] was “⊚”.
